Experiment in all cases: NCI anticancer screen, dose series, 48 h
In test [1] the test system is SNB-19 CNS.
Test [2] relates to UACC-257 melanoma.
The subject of test [3] is HCT-116 colon.
Test [4] relates to SF-539 CNS.
Test [5] concerns MDA-MB-435.
Test [6] has as its system T-47D breast.
The subject of test [7] is ACHN renal.
Test [8] deals with EKVX NSCLC.
The test system of test [9] is COLO 205 colon.
Test [10] concerns KM12 colon.

SMILES strings stand for the structures.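 Compound exposure: 48 hours, 5 concentrations, 96-well plates. TGI is the concentration that stops growth completely.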

Take `COc1cccc(/C=N/NC(=O)CSCC(=O)N/N=C/c2cccc(OC)c2OC)c1OC`: the TGI in test [1], in test [2], in test [3], in test [4], in test [5] and in test [6] was > 100 µM throughout. Also, the TGI in test [7], in test [8], in test [9] and in [10] was > 100 µM each time.
As for `CSC1(C)C(=O)Nc2c(OCc3ccccc3)cc([N+](=O)[O-])cc21` (stereo not drawn), the TGI in [1], in test [2], in test [3], in test [4], in test [5] and in test [6] was > 100 µM in each case. Further, the TGI in test [7], in [8], in test [9] and in test [10] was > 100 µM each time.
Turning to `Cc1ccc(C(=O)Nc2ccc(CP(=O)(O)O)cc2)cc1NC(=O)c1cccc(N)c1`, the TGI in test [1], in test [2], in test [3], in test [4], in test [5] and in test [6] was > 100 µM each time. Further, the TGI in [7], in test [8], in test [9] and in test [10] was > 100 µM each time.
In the case of `O=C1c2ccccc2C(=O)N1CCSCC(CO)SCCN1C(=O)c2ccccc2C1=O` (stereo not drawn), the TGI in [1], in test [2], in [3], in [5], in test [6] and in test [7] was > 100 µM each time. In addition, the TGI in [8], in test [9] and in test [10] was > 100 µM in each case.
For the molecule `C=CC(O)(CBr)CCC(Br)C(=C)C` (stereo not drawn), the TGI in [1], in test [2], in [3], in test [4], in test [5] and in test [6] was > 10 µM throughout. Also, the TGI in test [7], in test [8], in [9] and in [10] was > 10 µM each time.
`O=[N+]([O-])C(/C=C(\Cl)[N+](=O)[O-])=C1Nc2ccccc2N1`: the TGI in test [1] is > 100 µM; in [2], > 100 µM; in [3], > 100 µM; in test [4], 93.3 µM; in test [5], > 100 µM; in [6], 69 µM. In addition, the TGI in test [7], in test [8], in [9] and in test [10] was > 100 µM in each case.
On to `CCOP(=O)(OCC)/C(C#N)=C/c1cccn1C(C)C`, for which the TGI in test [1], in test [2], in test [3], in test [4], in [5] and in test [6] was > 100 µM each time. The TGI in test [7], in test [8], in test [9] and in [10] was > 100 µM each time.
Turning to `NS(=O)(=O)c1nnc(NC(=O)C23CC4CC(CC(C4)C2)C3)s1`, the TGI in [1], in test [2], in test [3], in [4], in test [5] and in [6] was > 100 µM each time. In addition, the TGI in test [7], in test [8], in test [9] and in [10] was > 100 µM throughout.
Regarding `CCCCn1c(CSc2ccc(Cl)cc2)c(C(=O)OCC)c2cc(OC)c(Br)cc21`, the TGI in test [1], in test [2], in test [3], in test [5], in test [6] and in [7] was > 100 µM throughout. In addition, the TGI in [8], in [9] and in test [10] was > 100 µM throughout.
With `Cc1ccc(C2(c3ccc(Cl)cc3)c3ccccc3C3=NCCN32)cc1` (stereo not drawn), the TGI in [1] is 28.2 µM; in test [2], 20.7 µM; in test [3], 10.1 µM; in [5] it was 10.1 µM; in test [6], 39.2 µM; in test [7], 19.8 µM. Also, the TGI worked out at 28.9 µM in test [8], 18.7 µM in [9] and 22.8 µM in test [10].
Consider `COCCN(CCNC(=O)c1cccc2c(N)c3cccc(C)c3nc12)CCOC`, for which the TGI in test [1] is 22.3 µM; in test [2] it was 19.9 µM; in test [4], 4.64 µM; in test [5], 11 µM; in [6], 27.5 µM; in test [7], 13.5 µM. The TGI in test [8] was 7.7 µM; in test [9], 2.13 µM; in test [10], 6.93 µM.
Turning to `C1CSCCSCCCSC2CCCCC2SC1` (stereo not drawn), the TGI in test [1], in test [2], in [3], in test [4], in test [5] and in test [6] was > 100 µM each time. Moreover, the TGI in test [8], in test [9] and in [10] was > 100 µM in each case.
With `OC1c2ccccc2CCC1CN1CCN(CCOC(c2ccc(F)cc2)c2ccc(F)cc2)CC1` (stereo not drawn), the TGI in [1] is > 100 µM; in test [2], 35.3 µM; in test [3] it was 20.8 µM; in test [4] it was 20.1 µM; in test [5], 80.1 µM; in test [6], 52.9 µM. Moreover, the TGI is > 100 µM in test [7], 3.44 µM in test [9] and > 100 µM in test [10].
For `COC1CCON1C(=O)c1ccccc1` (stereo not drawn), the TGI in [1], in test [2], in test [3], in [4], in [5] and in test [6] was > 10 µM each time. The TGI in [7], in test [8] and in [9] was > 10 µM throughout.
